Conditions: Liquid, Vibrating tube method

CCCC[n+]1cccc(C)c1.O=S(=O)([N-]S(=O)(=O)C(F)(F)F)C(F)(F)F
Conditions	mass density [kg/m3]
330.15 K, 101.33 kPa	1382.9
331.15 K, 101.33 kPa	1382.1
332.15 K, 101.33 kPa	1381.3
333.15 K, 100 kPa	1381.5
333.15 K, 101.33 kPa	1380.4
333.15 K, 1000 kPa	1382.2
333.15 K, 10000 kPa	1389.6
333.15 K, 20000 kPa	1397.2
333.15 K, 40000 kPa	1411.4
333.15 K, 60000 kPa	1424.4
333.15 K, 80000 kPa	1436.3
333.15 K, 100000 kPa	1447.5
333.15 K, 120000 kPa	1457.6
334.15 K, 101.33 kPa	1379.4
335.15 K, 101.33 kPa	1378.5
336.15 K, 101.33 kPa	1377.6
337.15 K, 101.33 kPa	1376.7
338.15 K, 101.33 kPa	1375.8
339.15 K, 101.33 kPa	1374.9
340.15 K, 101.33 kPa	1374.1
341.15 K, 101.33 kPa	1373.3
342.15 K, 101.33 kPa	1372.4
343.15 K, 101.33 kPa	1371.4
344.15 K, 101.33 kPa	1370.5
345.15 K, 101.33 kPa	1369.7
346.15 K, 101.33 kPa	1368.7
347.15 K, 101.33 kPa	1367.8
348.15 K, 100 kPa	1367.9
348.15 K, 101.33 kPa	1366.9
348.15 K, 1000 kPa	1368.7
348.15 K, 10000 kPa	1376.4
348.15 K, 20000 kPa	1384.4
348.15 K, 40000 kPa	1399.2
348.15 K, 60000 kPa	1412.7
348.15 K, 80000 kPa	1425
348.15 K, 100000 kPa	1436.5
348.15 K, 120000 kPa	1446.9
349.15 K, 101.33 kPa	1366
350.15 K, 101.33 kPa	1364.9
351.15 K, 101.33 kPa	1364
352.15 K, 101.33 kPa	1363
353.15 K, 101.33 kPa	1362.2
354.15 K, 101.33 kPa	1361.2
355.15 K, 101.33 kPa	1360.4
356.15 K, 101.33 kPa	1359.4
357.15 K, 101.33 kPa	1358.6
358.15 K, 101.33 kPa	1357.7
359.15 K, 101.33 kPa	1356.8
360.15 K, 101.33 kPa	1356
361.15 K, 101.33 kPa	1355.1
362.15 K, 101.33 kPa	1354.3
363.15 K, 101.33 kPa	1353.4
364.15 K, 101.33 kPa	1352.6
365.15 K, 101.33 kPa	1351.7
366.15 K, 101.33 kPa	1350.9
367.15 K, 101.33 kPa	1350
368.15 K, 101.33 kPa	1349.2
369.15 K, 101.33 kPa	1348.3
370.15 K, 101.33 kPa	1347.5
371.15 K, 101.33 kPa	1346.7
372.15 K, 101.33 kPa	1345.8
373.15 K, 100 kPa	1346.3
373.15 K, 101.33 kPa	1345
373.15 K, 1000 kPa	1346.5
373.15 K, 10000 kPa	1354.8
373.15 K, 20000 kPa	1363.4
373.15 K, 40000 kPa	1379.2
373.15 K, 60000 kPa	1393.5
373.15 K, 80000 kPa	1406.6
373.15 K, 100000 kPa	1418.7
373.15 K, 120000 kPa	1429.9
398.15 K, 100 kPa	1324.8
398.15 K, 1000 kPa	1324.6
398.15 K, 10000 kPa	1333.5
398.15 K, 20000 kPa	1342.9
398.15 K, 40000 kPa	1359.8
398.15 K, 60000 kPa	1374.9
398.15 K, 80000 kPa	1388.7
398.15 K, 100000 kPa	1401.4
398.15 K, 120000 kPa	1413.4

— the NIST ThermoML archive (doi:10.1016/j.jct.2017.10.012)
